Results as given in BindingDB's records for doi:10.1021/jm9801197 (Kennesaw State University, 1999).

Key:
[1] = Compound was evaluated for its binding affinity against Cannabinoid receptor 2 in Guinea pig ileum (GPI) using [3H]CP-55940 ligand
[2] = Compound was evaluated for its binding affinity against Cannabinoid receptor 1 in Guinea pig ileum (GPI) using [3H]SR-141,716A ligand
[3] = Compound was evaluated for its binding affinity against Cannabinoid receptor 1 in Guinea pig ileum (GPI) using [3H]CP-55940 ligand
[4] = Compound was evaluated for its binding affinity against Cannabinoid receptor 1 in Guinea pig ileum (GPI) using [3H]SR-141,716A ligand at site 2
[5] = Compound was evaluated for its binding affinity against Cannabinoid receptor 1 in Guinea pig ileum (GPI) using [3H]SR-141,716A ligand at site 1

Row | SMILES | Ki [1] [nM] | Ki [2] [nM] | Ki [3] [nM] | Ki [4] [nM] | Ki [5] [nM]
1 | C1=C(CCN2CCOCC2)c2ccccc2/C1=C\c1cccc2ccccc12 [4-(2-{3-[1-Naphthalen-1-yl-meth-(Z)-ylidene]-3H-inden-1-yl}-ethyl)-morpholine] | 132 | 928 | 148 | – | –
2 | C1=C(CCN2CCOCC2)c2ccccc2/C1=C/c1cccc2ccccc12 [4-(2-{3-[1-Naphthalen-1-yl-meth-(E)-ylidene]-3H-inden-1-yl}-ethyl)-morpholine] | 2.7 | – | 2.7 | 611 | 11
3 | CC1=C(CCN2CCOCC2)c2ccccc2/C1=C/c1cccc2ccccc12 [4-(2-{2-Methyl-3-[1-naphthalen-1-yl-meth-(Z)-ylidene]-3H-inden-1-yl}-ethyl)-morpholine] | 2.1 | – | – | – | –
